For series [1], the system named is T1, Ca2+-calmodulin-stimulated PDE I.
T1 construct: The Ca^2+-calmodulin-stimulated PDE I was isolated from porcine aorta, porcine brain or, preferably, from bovine aorta
The series is described as follows: Inhibition of the phosphodiesterases in vitro: PDE I. The series is classed as biochemical, porcine or bovine (preferably bovine aorta). Conditions: 1 μM CaCl2 and 0.1 μM calmodulin added; substrate 10^-6 mol/l. The procedure: (§1) The c-GMP-stimulated PDE II, the c-GMP-inhibited PDE III and the cAMP-specific PDE IV were isolated either from porcine or bovine heart myocardium. The Ca^2+-calmodulin-stimulated PDE I was isolated from porcine aorta, porcine brain or, preferably, from bovine aorta. The c-GMP-specific PDE V was obtained from porcine small intestine, porcine aorta, human platelets and, preferably, from bovine aorta. Purification was carried out by anion exchange chromatography over MonoQ^R Pharmacia, essentially following the method of M. Hoey and Miles D. Houslay, Biochemical Pharmacology, Vol. 40, 193-202 (1990) and C. Lugman et al. Biochemical Pharmacology Vol. 35 1743-1751 (1986).
(§2) The enzyme activity is determined using a test mixture of 100 μl in 20 mM Tris/HCl buffer pH 7.5 containing 5 mM MgCl2, 0.1 mg/ml of bovine serum albumin and either 800 Bq ^3HcAMP or ^3HcGMP. The final concentration of the nucleotides in question is 10^−6 mol/l. The reaction is initiated by addition of the enzyme and the amount of enzyme is such that during the incubation time of 30 min, approximately 50% of the substrate is converted. To test the cGMP-stimulated PDE II, ^3HcAMP is used as substrate and 10^−6 mol/l of non-labelled cGMP are added to the mixture. To test the Ca-calmodulin-dependent PDE I, 1 μM of CaCl2 and 0.1 μM of calmodulin are added to the reaction mixture. The reaction is quenched by addition of 100 μL of acetonitrile, containing 1 mM cAMP and 1 mM AMP. 100 μl of the reaction mixture are separated by HPLC and the cleavage products are determined quantitatively on-line using a continuous scintillation counter. The substance concentration measured is the concentration at which the reaction rate is reduced by 50%. Additionally, the “phodiesterase [^3H] cAMP-SPA enzyme assay” and the “phosphodiesterase [^3H] cGMP-SPA enzyme assay” from Amersham Life Science were used for testing. The test was carried out according to the test protocol of the manufacturer. To determine the activity of PDE2, the [^3H] cAMP-SPA assay was used, and 10^−6 M cGMP were added to the reaction mixture to activate the enzyme. To measure PDE1, 10^−7 M calmodulin and 1 μM CaCl2 were added to the reaction mixture. PDE5 was measured using the [^3H] cGMP-SPA assay.

The target of the next series is T2, c-GMP-stimulated PDE II (UniProt P14099).
T2 sequence (P14099 1-921): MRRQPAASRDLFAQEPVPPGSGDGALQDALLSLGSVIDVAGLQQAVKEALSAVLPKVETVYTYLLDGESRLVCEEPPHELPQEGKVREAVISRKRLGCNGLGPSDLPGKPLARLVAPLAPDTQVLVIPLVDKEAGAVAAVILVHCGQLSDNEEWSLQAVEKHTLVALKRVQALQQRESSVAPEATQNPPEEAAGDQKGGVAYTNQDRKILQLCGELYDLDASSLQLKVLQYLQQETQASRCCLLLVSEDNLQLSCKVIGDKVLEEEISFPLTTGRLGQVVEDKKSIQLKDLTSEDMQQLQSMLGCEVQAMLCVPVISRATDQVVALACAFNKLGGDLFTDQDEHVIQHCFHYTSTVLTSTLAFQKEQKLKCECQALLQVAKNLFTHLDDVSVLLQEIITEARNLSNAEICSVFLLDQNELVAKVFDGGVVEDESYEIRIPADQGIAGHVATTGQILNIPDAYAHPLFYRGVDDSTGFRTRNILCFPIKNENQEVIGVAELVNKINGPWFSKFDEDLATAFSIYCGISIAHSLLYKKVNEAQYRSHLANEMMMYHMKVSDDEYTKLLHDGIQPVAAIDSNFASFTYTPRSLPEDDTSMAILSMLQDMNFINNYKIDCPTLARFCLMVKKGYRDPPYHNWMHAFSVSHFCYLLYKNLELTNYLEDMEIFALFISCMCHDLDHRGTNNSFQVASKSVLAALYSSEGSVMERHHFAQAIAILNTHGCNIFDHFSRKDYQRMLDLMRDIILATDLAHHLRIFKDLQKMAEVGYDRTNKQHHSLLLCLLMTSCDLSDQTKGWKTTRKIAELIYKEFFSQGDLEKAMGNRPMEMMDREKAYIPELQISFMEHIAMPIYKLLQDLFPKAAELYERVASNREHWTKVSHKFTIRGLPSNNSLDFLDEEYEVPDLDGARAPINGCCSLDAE
The series is described as follows: Inhibition of the phosphodiesterases in vitro: PDE II. The series is classed as biochemical, porcine or bovine (heart myocardium). Conditions: 3HcAMP substrate, 10^-6 mol/l cGMP added. How it is done: as §1, §2

The target of a further series is T3, c-GMP-specific PDE V (Bos taurus, UniProt Q28156).
T3 construct: porcine aorta, human platelets and, preferably, from bovine aorta; from tissue; host or cells: porcine small intestine, porcine aorta, human platelets or, preferably, bovine aorta
Put plainly: Inhibition of the phosphodiesterases in vitro: PDE V. The series is classed as biochemical, porcine, human platelets or, preferably, bovine aorta. Particulars: 3HcGMP substrate 10^-6 mol/l. The procedure:
as §1, §2

pIC50: −log10 of the molar value.

The melting point is the temperature of the solid-liquid transition. Regarding `CC(CCCc1ccccc1)n1nnc2c(=O)[nH]c(Cc3ccccc3)nc21` (stereo not shown) [Example 4, 5-Benzyl-3-(1-methyl-4-phenyl-butyl)-3,6-dihydro-[1,2,3]triazolo[4,5-d]pyrimidin-7-one], the melting point was 112 °C.

A word on the pIC50: it is −log10 of the IC50, conventionally taken in molar units. High values mean a low IC50, low ones a high IC50. For the compound `COc1ccc(Cc2nc3c(nnn3C(C)CCCc3ccccc3)c(=O)[nH]2)cc1OC` (stereo not shown) [Example 5, 5-(3,4-Dimethoxy-benzyl)-3-(1-methyl-4-phenyl-butyl)-3,6-dihydro-[1,2,3]triazolo-[4,5-d]pyrimidin-7-one], the pIC50 in series [1] was 6.30; at c-GMP-stimulated PDE II, 7.10; against c-GMP-specific PDE V it was 6.30.

Consider `CNS(=O)(=O)c1ccc(Cc2nc3c(nnn3C(C)CCCc3ccccc3)c(=O)[nH]2)cc1` (stereo not shown) [Example 19, N-Methyl-4-[3-(1-methyl-4-phenyl-butyl)-7-oxo-6,7-dihydro-3H-[1,2,3]-triazolo-[4,5-d]pyrimidin-5-ylmethyl]-benzenesulphonamide], for which the pIC50 in series [1] was 6.70; on c-GMP-stimulated PDE II, 6.70; at c-GMP-specific PDE V, less than 6.00.

`CC(CCCc1ccccc1)n1nnc2c(=O)[nH]c(Cc3ccc(S(=O)(=O)NCCO)cc3)nc21` (stereo not shown) [Example 23, N-(2-Hydroxyethyl)-4-[3-(1-methyl-4-phenyl-butyl)-7-oxo-6,7-dihydro-3H-[1,2,3]triazolo[4,5-d]pyrimidin-5-ylmethyl]benzenesulphonamide]: the pIC50 in series [1] is 7.00; on c-GMP-stimulated PDE II it was 7.00; on c-GMP-specific PDE V, less than 6.00.

For the compound `CC(O)C(CCCc1ccccc1)n1nnc2c(=O)[nH]c(Cc3ccc4c(c3)OCO4)nc21` (stereo not shown) [Example 30, 5-Benzo[1,3]dioxol-5-ylmethyl-3-[1-(1-hydroxy-ethyl)-4-phenyl-butyl]-3,6-dihydro-[1,2,3]triazolo[4,5-d]pyrimidin-7-one], the pIC50 in series [1] was 6.30; against c-GMP-stimulated PDE II it was 6.52; at c-GMP-specific PDE V, not above 6.00.

On to `COc1ccc(Cc2nc3c(nnn3C(CCCc3ccccc3)C(C)O)c(=O)[nH]2)cc1OC` (stereo not shown) [Example 31, 5-(3,4-Dimethoxy-benzyl)-3-[1-(1-hydroxy-ethyl)-4-phenyl-butyl]-3,6-dihydro-[1,2,3]triazolo[4,5-d]pyrimidin-7-one], for which the results for the pIC50 (in series [1]; on c-GMP-stimulated PDE II; at c-GMP-specific PDE V) were less than 6.00, 7.40 and less than 6.00, respectively.

Source of the values: US6458796B1, “Dihydro-[1,2,3]triazolo-[4,5-d]pyrimidin-7-one” (Bayer Aktiengesellschaft, priority 1998, dated 2002).
